# Assay results from patent US7939535B2, “Benzo[D]isoxazol-3-yl-piperazin derivatives useful as modulators of dopamine D3 receptors” (Hoffman-La Roche Inc., priority 2008, dated 2011).
# Biological target: T1, human D3 dopamine receptor (Homo sapiens, UniProt P35462)
# T1 construct: expressed in transfected cells; host or cells: HEK-293 EBNA cells, transient transfection; membrane homogenate
# Test: radioligand binding ([3H]-spiperone) to human D3 receptor membranes
# Settings: [3H]-spiperone displacement, membranes of HEK-293 EBNA cells transiently expressing human D3
# Procedure: The ability of the compounds to bind to the D3 receptors was determined using radioligand binding to cloned receptors selectively expressed in HEK-293 EBNA cells.
# HEK-293 EBNA cells were transiently transfected with expression plasmids encoding for the human D3 dopamine receptor. The cells were harvested 48 h post-transfection, washed three times with cold PBS and stored at −80° C. prior to use. The pellet was suspended in cold 50 mM Tris-HCl buffer containing 10 mM EDTA (pH 7.4) and homogenized with a Polytron (Kinematica AG, Basel, Switzerland) for 20-30 sec at 12.000 rpm. After centrifugation at 48.000×g for 30 mM at 4° C., the pellet was resuspended in cold 10 mM Tris-HCl buffer containing 0.1 mM EDTA (pH 7.4), homogenized, and centrifuged as above. This pellet was further resuspended in a smaller volume of ice cold 10 mM Tris-HCl buffer containing 0.1 mM EDTA (pH 7.4) and homogenized with a Polytron for 20-30 sec at 12.000 rpm. The protein content of this homogenate was determined with the Bio-Rad (radford) Protein Assay (Biorad Laboratories GmbH, München, Germany) according to the instructions of the manufacturer using gamma globulin as the standard. This homogenate was stored at −80° C. in aliquots and thawed immediately prior to use.
# Aliquots of membrane preparations were thawed at RT, resuspended in assay buffer (50 mM Tris-HCl, 120 mM NaCl, 5 mM MgCl2, 1 mM E TA, 5 mM KCl, 1.5 mM CaCl2, pH=7.4), homogenized with a Polytron for 20-30 sec at 12.000 rpm and adjusted to a final concentration of approximately 7.5 μg protein/well.
# The binding affinity (Ki) of the compounds was determined using radioligand binding. Membranes were incubated in a total volume of 200 with a fixed concentration of radioligand (final concentration approximately 0.5 nM [^3H]-spiperone) and ten concentrations of test compound in ranging between 10 μM-0.1 nM for 1 at RT. At the end of the incubation, the reaction mixtures were filtered on to unifilter 96-well white microplates with bonded GF/C filters (Packard BioScience, Zürich, Switzerland; preincubated for 1 h in 0.1% polyethylenimine (PEI) in assay buffer) with a Filtermate 196 harvester (Pack rd BioScience) and washed 3 times with cold assay buffer. The nonspecific binding was determined with equally composed reaction mixtures in the presence of 10 μM unlabelled spiperone. Per well 45 μl of Microscint 40 (Perkin Elmer, Schwerzenbach, Switzerland) was added, plate, for sealed, shaken for 20 mM and counted for 3 mM on a Topcount Microplate Scintillation Counter (Canberra Packard SA, Zürich, Switzerland) with quenching correction.
# The CPM value for each duplicate of a concentration of competing compound was averaged (y1), then the % specific binding was calculated according to the equation (((y1−non-specific)/(total binding-non-specific))×100). Graphs were plotted with the % specific binding using XLfit, a curve fitting program that iteratively plots the data using Levenburg Marquardt algorithm. The single site competition analysis equation used was y=A+((B−A)/(1+((x/C)^D))), where y is the % specific binding, A is the minimum y, B is the maximum y, C is the IC50, x is the log10 of the concentration of the competing compound and D is the slope of the curve (the Hill Coefficient). From these curves the IC50 (inhibition concentration at which 50% specific binding of the radioligand was displaced) and Hill coefficient were determined. The affinity constant (Ki) was calculated using the Cheng-Prusoff equation Ki=(IC50/1+([L]/Kd), where [L] is the concentration of radioligand and Kd is the dissociation constant of the radioligand at the receptor as determined by the saturation isotherm.
# T1 sequence (P35462 whole entry): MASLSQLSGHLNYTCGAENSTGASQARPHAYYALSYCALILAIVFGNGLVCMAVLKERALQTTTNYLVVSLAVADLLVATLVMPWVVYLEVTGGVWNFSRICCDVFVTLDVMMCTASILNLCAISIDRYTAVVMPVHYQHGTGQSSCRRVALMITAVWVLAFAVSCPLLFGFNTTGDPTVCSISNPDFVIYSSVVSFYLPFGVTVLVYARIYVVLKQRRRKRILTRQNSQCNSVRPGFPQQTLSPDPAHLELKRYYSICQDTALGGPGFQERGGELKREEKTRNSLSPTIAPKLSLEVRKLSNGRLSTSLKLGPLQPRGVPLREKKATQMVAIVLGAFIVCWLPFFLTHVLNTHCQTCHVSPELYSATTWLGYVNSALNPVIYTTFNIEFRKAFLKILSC
row,Compound,Ki
1,"CCC(=O)N[C@H]1CC[C@H](CCN2CCN(c3noc4c(F)cc(F)cc34)CC2)CC1 [Example 6, N-(trans-4-{2-[4-(5,7-Difluoro-benzo[d]isoxazol-3-yl)-piperazin-1-yl]-ethyl}-cyclohexyl)-propionamide]",4.53 nM
2,"NC(=O)CC(=O)N[C@H]1CC[C@H](CCN2CCN(c3noc4c(F)cc(F)cc34)CC2)CC1 [Example 9, N-(trans-4-{2-[4-(5,7-Difluoro-benzo[d]isoxazol-3-yl)-piperazin-1-yl]-ethyl}-cyclohexyl)-malonamide]",5.94 nM
3,"COCCC(=O)N[C@H]1CC[C@H](CCN2CCN(c3noc4ccc(F)c(F)c34)CC2)CC1 [Example 11, N-(trans-4-{2-[4-(4,5-Difluoro-benzo[d]isoxazol-3-yl)-piperazin-1-yl]-ethyl}-cyclohexyl)-3-methoxy-propionamide]",9.71 nM
4,"O=C(CO)N[C@H]1CC[C@H](CCN2CCN(c3noc4c(F)cc(F)cc34)CC2)CC1 [Example 2, N-(trans-4-{2-[4-(5,7-Difluoro-benzo[d]isoxazol-3-yl)-piperazin-1-yl]-ethyl}-cyclohexyl)-2-hydroxy-acetamide]",3.88 nM
5,"O=C(CC1CC1)N[C@H]1CC[C@H](CCN2CCN(c3noc4c(F)cc(F)cc34)CC2)CC1 [Example 7, 2-Cyclopropyl-N-(trans-4-{2-[4-(5,7-difluoro-benzo[d]isoxazol-3-yl)-piperazin-1-yl]-ethyl}-cyclohexyl)-acetamide]",2.72 nM
6,"CO[C@H]1CC[C@H](CC(=O)N[C@H]2CC[C@H](CCN3CCN(c4noc5c(F)cc(F)cc45)CC3)CC2)CC1 [Example 5, N-(trans-4-{2-[4-(5,7-Difluoro-benzo[d]isoxazol-3-yl)-piperazin-1-yl]-ethyl}-cyclohexyl)-2-(trans-4-methoxy-cyclohexyl)-acetamide]",11.8 nM
7,"CC(=O)N[C@H]1CC[C@H](CCN2CCN(c3noc4c(F)cc(F)cc34)CC2)CC1 [Example 1, N-(trans-4-{2-[4-(5,7-Difluoro-benzo[d]isoxazol-3-yl)-piperazin-1-yl]-ethyl}-cyclohexyl)-acetamide]",3.7 nM
8,"COCC(=O)N[C@H]1CC[C@H](CCN2CCN(c3noc4c(F)cc(F)cc34)CC2)CC1 [Example 3, N-(trans-4-{2-[4-(5,7-Difluoro-benzo[d]isoxazol-3-yl)-piperazin-1-yl]-ethyl}-cyclohexyl)-2-methoxy-acetamide]",15.6 nM
9,"O=C(N[C@H]1CC[C@H](CCN2CCN(c3noc4c(F)cc(F)cc34)CC2)CC1)C1CCOCC1 [Example 8, Tetrahydro-pyran-4-carboxylic acid (trans-4-{2-[4-(5,7-difluoro-benzo[d]isoxazol-3-yl)-piperazin-1-yl]-ethyl}-cyclohexyl)-amide]",9.81 nM
10,"CC(=O)N[C@H]1CC[C@H](CCN2CCN(c3noc4ccc(F)c(F)c34)CC2)CC1 [Example 10, N-(trans-4-{2-[4-(4,5-Difluoro-benzo[d]isoxazol-3-yl)-piperazin-1-yl]-ethyl}-cyclohexyl)-acetamide]",8.57 nM
11,"COCCC(=O)N[C@H]1CC[C@H](CCN2CCN(c3noc4c(F)cc(F)cc34)CC2)CC1 [Example 4, N-(trans-4-{2-[4-(5,7-Difluoro-benzo[d]isoxazol-3-yl)-piperazin-1-yl]-ethyl}-cyclohexyl)-3-methoxy-propionamide]",3.66 nM
